Drawing on PubChem BioAssay AID342 (DTP/NCI, 2004), this text covers T/C for eight compounds.

This experiment has as its system Swiss mice, Sarcoma 180 sc, mean tumor weight T/C. Put plainly: NCI In Vivo Anticancer Drug Screen. Data for tumor model Sarcoma 180 (subcutaneous) in Swiss mice. The note with it: endpoint: mean tumor weight, higher = larger tumour. Put shortly: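 Antitumor activity is assessed in mice with transplantable tumors. Treated (T) and vehicle control (C) groups are compared on survival or tumor size.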

The mark [1] stands for this setting: dose: 10.0 mg/kg/injection, schedule: Q01DX007 (ip), vehicle: carboxymethylcellulose (CMC).

SMILES strings stand for the structures. Values joined by “and” are separate entries in the source; they are usually repeats but may differ in a detail not shown here. Identical values can stand only once.

`O=NN(CCCl)C(=O)NCCCl`: the T/C is 27 % of control (dose: 1.5 mg/kg/injection, schedule: Q01DX007 (ip), vehicle: saline); 79 % of control (dose: 2.6 mg/kg/injection, schedule: Q01DX007 (ip), vehicle: saline); 44 % of control (dose: 3.0 mg/kg/injection, schedule: Q01DX007 (ip), vehicle: saline); 60 % of control (dose: 3.0 mg/kg/injection, schedule: Q01DX007 (oral), vehicle: carboxymethylcellulose (CMC)); 75 % of control (dose: 4.0 mg/kg/injection, schedule: Q01DX007 (ip), vehicle: carboxymethylcellulose (CMC)); 90 % of control (dose: 4.3 mg/kg/injection, schedule: Q01DX007 (ip), vehicle: saline). For the same compound, the T/C is, setting by setting: (dose: 6.0 mg/kg/injection, schedule: Q01DX007 (ip), vehicle: carboxymethylcellulose (CMC)) 46 % of control and 58 % of control; (dose: 6.0 mg/kg/injection, schedule: Q01DX007 (ip), vehicle: saline) 47 % of control; (dose: 6.0 mg/kg/injection, schedule: Q01DX007 (oral), vehicle: carboxymethylcellulose (CMC)) 32 % of control; (dose: 7.2 mg/kg/injection, schedule: Q01DX007 (ip), vehicle: saline) 62 % of control; (dose: 8.0 mg/kg/injection, schedule: Q01DX007 (ip), vehicle: carboxymethylcellulose (CMC)) 35 % of control; under setting [1], 27 % of control. Besides, the T/C is 10 % of control (dose: 12.0 mg/kg/injection, schedule: Q01DX007 (ip), vehicle: carboxymethylcellulose (CMC)); 36 % of control and 44 % of control (dose: 12.0 mg/kg/injection, schedule: Q01DX007 (ip), vehicle: saline); 12 % of control (dose: 12.0 mg/kg/injection, schedule: Q01DX007 (oral), vehicle: carboxymethylcellulose (CMC)); 24 % of control (dose: 20.0 mg/kg/injection, schedule: Q01DX007 (ip), vehicle: saline); 6 % of control (dose: 24.0 mg/kg/injection, schedule: Q01DX007 (oral), vehicle: carboxymethylcellulose (CMC)).
`NC1C(O)C(O)C(Nc2ncnc3nc[nH]c23)OC1C(O)CO` (stereo not drawn): the T/C by setting is: (dose: 0.44 mg/kg/injection, schedule: Q## X000 (ip), vehicle: carboxymethylcellulose (CMC)) 100 % of control; (dose: 0.66 mg/kg/injection, schedule: Q## X000 (ip), vehicle: carboxymethylcellulose (CMC)) 66 % of control; (dose: 1.0 mg/kg/injection, schedule: Q## X000 (ip), vehicle: carboxymethylcellulose (CMC)) 82 % of control; (dose: 1.5 mg/kg/injection, schedule: Q## X000 (ip), vehicle: carboxymethylcellulose (CMC)) 72 % of control.
`Cc1cc2c(c3oc(C4(C)OC4C4OC4C)cc(=O)c13)C(=O)c1c(O)c(C3CC(C)(N(C)C)C(O)C(C)O3)cc(C3CC(N(C)C)C(O)C(C)O3)c1C2=O` (stereo not drawn): the T/C is, setting by setting: (dose: 0.05 mg/kg/injection, schedule: Q01DX007 (sc), vehicle: other) 100 % of control; (dose: 0.1 mg/kg/injection, schedule: Q01DX007 (sc), vehicle: other) 79 % of control.
For the compound `Nc1ccc2c(c1)Cc1cc(NC=O)ccc1-2`, the T/C is 98 % of control (dose: 55.5 mg/kg/injection, schedule: Q01DX007 (ip), vehicle: carboxymethylcellulose (CMC)); 52 % of control (dose: 83.3 mg/kg/injection, schedule: Q01DX007 (ip), vehicle: carboxymethylcellulose (CMC)); 72 % of control (dose: 125.0 mg/kg/injection, schedule: Q01DX007 (ip), vehicle: carboxymethylcellulose (CMC)); 36 % of control (dose: 187.5 mg/kg/injection, schedule: Q01DX007 (ip), vehicle: carboxymethylcellulose (CMC)).
Regarding `[Cl][Pt+2]([Cl])([Cl])[Cl].[Na+].[S-]c1ncnc2nc[nH]c12.[S-]c1ncnc2nc[nH]c12`, the T/C is 92 % of control (dose: 1.1 mg/kg/injection, schedule: Q01DX007 (ip), vehicle: carboxymethylcellulose (CMC)); 45 % of control under setting [1]; 74 % of control (dose: 19.0 mg/kg/injection, schedule: Q01DX007 (ip), vehicle: carboxymethylcellulose (CMC)); 40 % of control (dose: 20.0 mg/kg/injection, schedule: Q01DX007 (ip), vehicle: carboxymethylcellulose (CMC)); 47 % of control and 50 % of control (dose: 22.0 mg/kg/injection, schedule: Q#A X014 (ip), vehicle: methylcellulose (MC)); 29 % of control (dose: 22.2 mg/kg/injection, schedule: Q#A X014 (ip), vehicle: carboxymethylcellulose (CMC)). Moreover, the T/C was 43 % of control (dose: 29.0 mg/kg/injection, schedule: Q01DX007 (ip), vehicle: carboxymethylcellulose (CMC)); 54 % of control (dose: 30.0 mg/kg/injection, schedule: Q01DX007 (ip), vehicle: carboxymethylcellulose (CMC)); 24 % of control (dose: 33.3 mg/kg/injection, schedule: Q#A X014 (ip), vehicle: carboxymethylcellulose (CMC)); 38 % of control and 41 % of control (dose: 44.0 mg/kg/injection, schedule: Q01DX007 (ip), vehicle: carboxymethylcellulose (CMC)); 10 % of control (dose: 50.0 mg/kg/injection, schedule: Q#A X014 (ip), vehicle: carboxymethylcellulose (CMC)); 24 % of control and 44 % of control (dose: 50.0 mg/kg/injection, schedule: Q#A X014 (ip), vehicle: methylcellulose (MC)). Further, the T/C (dose: 65.0 mg/kg/injection, schedule: Q01DX007 (ip), vehicle: carboxymethylcellulose (CMC)) was 28 % of control; the T/C (dose: 66.0 mg/kg/injection, schedule: Q01DX007 (ip), vehicle: carboxymethylcellulose (CMC)) was 57 % of control; the T/C (dose: 75.0 mg/kg/injection, schedule: Q#A X014 (ip), vehicle: carboxymethylcellulose (CMC)) is 7 % of control; the T/C (dose: 75.0 mg/kg/injection, schedule: Q#A X014 (ip), vehicle: methylcellulose (MC)) is 16 % of control and 34 % of control; the T/C (dose: 220.0 mg/kg/injection, schedule: Q01DX007 (ip), vehicle: carboxymethylcellulose (CMC)) is 11 % of control; the T/C (dose: 300.0 mg/kg/injection, schedule: Q01DX007 (ip), vehicle: carboxymethylcellulose (CMC)) was 1 % of control.
Take `COc1ccc(C[C@H](N)C(=O)NC2C(CO)OC(n3cnc4c(N(C)C)ncnc43)C2O)cc1` (stereo partly drawn): the T/C was 106 % of control (dose: 12.5 mg/kg/injection, schedule: Q#A X014 (ip), vehicle: carboxymethylcellulose (CMC)); 65 % of control (dose: 13.12 mg/kg/injection, schedule: Q01DX007 (ip), vehicle: carboxymethylcellulose (CMC)); 105 % of control (dose: 26.25 mg/kg/injection, schedule: Q01DX007 (ip), vehicle: carboxymethylcellulose (CMC)); 66 % of control (dose: 52.5 mg/kg/injection, schedule: Q01DX007 (ip), vehicle: carboxymethylcellulose (CMC)); 80 % of control (dose: 105.0 mg/kg/injection, schedule: Q01DX007 (ip), vehicle: carboxymethylcellulose (CMC)).
Regarding `COC(=O)CC(C(=O)C=[N+]=[N-])N1C(=O)c2ccccc2C1=O` (stereo not drawn), the T/C (dose: 0.03 mg/kg/injection, schedule: Q01DX007 (ip), vehicle: carboxymethylcellulose (CMC)) was 112 % of control; the T/C (dose: 0.05 mg/kg/injection, schedule: Q01DX007 (ip), vehicle: carboxymethylcellulose (CMC)) is 89 % of control; the T/C (dose: 0.1 mg/kg/injection, schedule: Q01DX007 (ip), vehicle: carboxymethylcellulose (CMC)) is 101 % of control; the T/C (dose: 0.2 mg/kg/injection, schedule: Q01DX007 (ip), vehicle: carboxymethylcellulose (CMC)) is 95 % of control and 102 % of control; the T/C (dose: 0.4 mg/kg/injection, schedule: Q01DX007 (ip), vehicle: carboxymethylcellulose (CMC)) is 115 % of control; the T/C (dose: 0.8 mg/kg/injection, schedule: Q01DX007 (ip), vehicle: carboxymethylcellulose (CMC)) was 88 % of control and 91 % of control. The T/C (dose: 3.2 mg/kg/injection, schedule: Q01DX007 (ip), vehicle: carboxymethylcellulose (CMC)) is 99 % of control; the T/C (dose: 6.4 mg/kg/injection, schedule: Q01DX007 (ip), vehicle: carboxymethylcellulose (CMC)) was 70 % of control and 83 % of control; the T/C (dose: 12.8 mg/kg/injection, schedule: Q01DX007 (ip), vehicle: carboxymethylcellulose (CMC)) is 87 % of control; the T/C (dose: 25.6 mg/kg/injection, schedule: Q01DX007 (ip), vehicle: carboxymethylcellulose (CMC)) was 84 % of control.
On to `CC(CN)CCC(C)(O)C(N)=O` (stereo not drawn), for which the T/C by setting is: (dose: 83.0 mg/kg/injection, schedule: Q#A X014 (ip), vehicle: methylcellulose (MC)) 63 % of control; (dose: 125.0 mg/kg/injection, schedule: Q#A X014 (ip), vehicle: methylcellulose (MC)) 49 % of control; (dose: 187.5 mg/kg/injection, schedule: Q#A X014 (ip), vehicle: methylcellulose (MC)) 47 % of control.

What is called T/C is the result in the treated group divided by that in the control group, in per cent.
